From patent US20230080477A1, “PROCESS OF SYNTHESIS OF NOVEL CHROMIUM (III) COMPLEXES OF SCHIFF BASE LIGANDS AND THEIR USE THERE OF AS THERAPEUTIC AGENTS” (priority 2021, published 2023)

Tests used:
[1] = Eastmond et al., 2008; Katz & salem, 1993; cited from earlier work
[2] = DPPH free radical antioxidant activity assay; type: biochemical; settings: dilution 1 ml, wavelength 517 nm; for Inhibition: DPPH assay
Description: Antioxidant activity of the synthesized Cr(III) Schiff base complexes was tested using the free radical compound 2,2-diphenyl-1-picrylhydrazyl(DPPH) (25,26). This compound has a violet color when dissolved in ethanol and a strong absorption maximum centered at around 515-520 nm. DPPH became colorless or pale yellow when neutralized. An aliquot of DPPH (0.3 ml) in ethanol ([…]) was added to ethanol(3 ml), followed by addition of Cr(III) complex dissolve in ethanol (0.5 ml)(total Volume 3.8 ml). A UV/visible spectrophotometer was used to monitor the color change at 517 nm after 100 minutes of reaction. A blank sample contained a mixture of the Cr(III) complex in ethanol (0.5 ml) and ethanol (3.3 ml) (Total Volume 3.8 ml) without any DPPH (no violet color). A control sample contained a solution of DPPH (0.3 ml) and ethanol (3.5 ml) (total volume 3.8 ml) without any Cr (III) complex (Violet color remains). The amount of scavenging activity (%) was determined by the method of Mensor et al. (27).
Finally, the % scavenging activities for Schiff base ligands and derived Cr(III) complexes were calculated by applying the formula
Scavenging activity=(Ac−At)/Ac×100%
Where Ac and At represent the absorbance of the control and test samples, respectively (Choudhary et al., 2011)^28

Row | SMILES | Acute toxicity range [1] | Inhibition [2] | DPPH Equivalent Antioxidant activity [2] | Total Antioxidant activity [2]
1 | [Cr+3] [Cr(III) ion] | 1.5 to 3.3 mg/kg | – | – | –
2 | Cc1ccc(NC(=O)CC(=O)NNc2cc[nH]c2)cc1 [Ligand 1] | – | 0.077 | 1.253 | 65%
3 | CC/C=N\NC(=O)CC(=O)Nc1ccc(C)cc1 [Ligand 2, N-[4-methylphenyl)-3-oxo-3[(2Z)-2-propylidene hydrazinyl] propanamide] | – | 0.074 | 1.223 | 66%
